pIC50: −log10 of the molar value. Calls of active or inactive are those of the source. No rule for the calls is given here.
How the values were obtained:
[1] = target: Acyl-protein thioesterase 1 (Homo sapiens) (UniProt O75608); experiment: concentration-dependent LYPLA1/LYPLA2 inhibition – gel-based ABPP, fluorescence, HEK293T proteome, dose response (AID 651990); conditions: HEK293T soluble proteome, gel-based ABPP FP-PEG-Rh fluorescence; LYPLA1
[2] = target: Acyl-protein thioesterase 2 (Homo sapiens) (UniProt O95372); experiment: as above; conditions: HEK293T soluble proteome, gel-based ABPP FP-PEG-Rh fluorescence; LYPLA2
Chain of Acyl-protein thioesterase 2 (Homo sapiens) (O95372 whole entry, looked up): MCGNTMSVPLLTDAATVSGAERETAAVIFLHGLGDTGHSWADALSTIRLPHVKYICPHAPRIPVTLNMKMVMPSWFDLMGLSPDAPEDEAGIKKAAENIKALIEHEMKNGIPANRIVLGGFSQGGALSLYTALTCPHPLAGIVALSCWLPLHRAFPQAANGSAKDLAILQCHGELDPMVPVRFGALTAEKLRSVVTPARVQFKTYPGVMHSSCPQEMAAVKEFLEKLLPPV

Chain of Acyl-protein thioesterase 1 (Homo sapiens) (O75608 whole entry, looked up): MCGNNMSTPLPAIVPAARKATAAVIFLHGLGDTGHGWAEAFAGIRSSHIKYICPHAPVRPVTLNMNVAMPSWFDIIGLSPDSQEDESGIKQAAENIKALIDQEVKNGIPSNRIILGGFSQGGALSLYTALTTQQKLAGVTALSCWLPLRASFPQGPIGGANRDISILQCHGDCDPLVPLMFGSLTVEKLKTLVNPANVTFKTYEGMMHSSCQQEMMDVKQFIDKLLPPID

Row | IC50 [1] | pIC50 [2] | IC50 [2] | Structure (SMILES)
1 | > 3000 nM (inactive) | 6.84 | – | COc1ccc(N2CCN(C(=O)c3cc4c(s3)-c3ccccc3S(=O)(=O)C4)CC2)cc1
2 | – | – | > 3000 nM (inactive) | O=C(CN1CCN(C(=O)c2ccco2)CC1)Nc1cc(C(F)(F)F)ccc1Cl

— PubChem BioAssay AID651990 (The Scripps Research Institute Molecular Screening Center, 2013)
